Assay results taken from patent publication US20200297760A1, “COMPOSITIONS AND METHODS FOR REDUCING IMMUNE RESPONSES AGAINST CHIMERIC ANTIGEN RECEPTORS” (Juno Therapeutics, Inc., priority 2015, published 2020).
No end group written: not given here.

How the values were obtained:
Test in all cases: REVEAL Epitope Discovery System in vitro MHC-peptide binding assay
[1] = target: HLA-A*02:01 (Homo sapiens, UniProt P04439, D140Y/D185E/D98H/E176V/E277Q/G131W/G231S/I119V/I121R/I166T/I218V/L300P/L318F/N151K/N90K/P208A/P217A/Q86G/Q94H/R138H/R169H/T345S); conditions: binding normalized to positive control peptide set at 100%, greater than 50 considered good or high affinity binding
Experimental: (§1) Actual binding affinities for certain HLA class I alleles (A*02:01, A*03:01, A*11:01, and B*08:01) were assessed in vitro for exemplary overlapping 9 amino acid peptide sequences within a portion of the 26 amino acid junction region spanning the CD28 and 4-1BB junction. Specifically, assessment was of a series of overlapping 9-mer peptides derived from the sequence […] (set forth in SEQ ID NO: 7), which contains a portion of the CD28 transmembrane domain and 4-1BB costimulatory domain spanning the junction between the domains (bond joining the two amino acids noted in underline). In addition, a series of overlapping 9-mer peptides of each of a number of different variants of this portion also were assessed, each variant containing a mutation or mutations in this region as described in Example 2.
(§2) The various 9-mer overlapping peptides were synthesized and their purity tested by MALDI-TOF Mass Spectrometry. The synthetic peptides were then incubated with recombinant MHC molecules to assess binding properties using the REVEAL Epitope Discovery System, which is a high-throughput binding assay that measures the degree to which each peptide is able to stabilize a ternary MHC-peptide complex (Prolmmune, Oxford, United Kingdom). Each peptide was separately tested for this ability with respect to each of the HLA class I alleles, normalized to the degree observed for a positive control (known T cell epitope for the relevant allele). The results are reported as a score, in which the binding was normalized to the positive control peptide set at 100%. In this analysis, a score of greater than 50 generally was considered to represent good or high affinity binding.

[2] = target: HLA-A*03:01 (Homo sapiens, UniProt P04439); conditions: REVEAL score, binding normalized to positive control peptide set at 100%; greater than 50 considered good or high affinity binding
Experimental: as §1, §2

[3] = target: HLA-A*11:01 (Homo sapiens, UniProt P04439, A114D/D185E/E176A/F33Y/L180Q/S129P/T187R); conditions: binding normalized to positive control peptide set at 100%, >50 considered good or high affinity binding
Experimental: as §1, §2

[4] = target: HLA-B*08:01 (Homo sapiens, UniProt P01889, A93T/A95T/D138N/E176V/E187T/K202T/Q94N/R180D/S35A/V36M/Y33D/Y91F); conditions: binding normalized to positive control peptide set at 100%, >50 considered good or high affinity binding
Experimental: as §1, §2

| Compound | A*02:01 In Vitro Score [1] | A*03:01 In Vitro [2] | A*11:01 In Vitro Score [3] | B*08:01 In Vitro Score [4] |
| --- | --- | --- | --- | --- |
| IIFWVHRGR | 4.70 | 30.10 | 77.50 | 0.20 |
| IFWVKRGAK | 13.80 | 22.00 | 69.70 | 2.20 |
| IIFWVKRGA | 85.90 | 42.90 | 22.60 | 0.90 |
| CC[C@H](C)[C@H](N)C(=O)N[C@@H](Cc1ccccc1)C(=O)N[C@@H](Cc1c[nH]c2ccccc12)C(=O)N[C@H](C(=O)N[C@@H](CCCCN)C(=O)N[C@@H](CCCNC(=N)N)C(=O)NCC(=O)N[C@@H](CC(N)=O)C(=O)N[C@@H](CCCCN)C(=O)O)C(C)C | 3.50 | 8.00 | 45.90 | 0.10 |
| IFWVQRGSK | 33.50 | 20.30 | 103.30 | 0.00 |
| FIIFWVSRG | 0.20 | 0.10 | 5.10 | 0.40 |
| AFIIFWVHR | 0.30 | 0.30 | 34.90 | 0.30 |
| FWVQRGNKK | 3.10 | 1.30 | 5.90 | 0.00 |
| AFIIFWVLR | 5.70 | 0.30 | 17.20 | 0.20 |
| CC[C@H](C)[C@H](N)C(=O)N[C@H](C(=O)N[C@@H](Cc1ccccc1)C(=O)N[C@@H](Cc1c[nH]c2ccccc12)C(=O)N[C@H](C(=O)N[C@@H](CCCCN)C(=O)N[C@@H](CCCNC(=N)N)C(=O)NCC(=O)N[C@@H](CC(N)=O)C(=O)O)C(C)C)[C@@H](C)CC | 9.30 | 4.30 | 42.10 | 0.90 |
| CC[C@H](C)[C@H](N)C(=O)N[C@H](C(=O)N[C@@H](Cc1ccccc1)C(=O)N[C@@H](Cc1c[nH]c2ccccc12)C(=O)N[C@H](C(=O)N[C@@H](CC(C)C)C(=O)N[C@@H](CCCNC(=N)N)C(=O)NCC(=O)N[C@@H](CCCNC(=N)N)C(=O)O)C(C)C)[C@@H](C)CC | 8.40 | 2.80 | 35.20 | 0.40 |
| AFIIFWVAR | 2.20 | 0.50 | 51.80 | 0.20 |
| FIIFWVHRG | 37.30 | 0.00 | 0.90 | 0.20 |
| IIFWVSRGR | 2.60 | 25.30 | 68.90 | 0.00 |
| IFWVKRGRK | 4.50 | 20.50 | 29.30 | 0.40 |
| IFWVQRGNK | 16.10 | 23.20 | 67.50 | 0.10 |
| WVKRGNKKL | 2.40 | 0.90 | 4.10 | 65.90 |
| AFIIFWVKR | 0.50 | 5.70 | 25.90 | 1.90 |
| IFWVSRGRK | 1.30 | 39.20 | 39.20 | 0.00 |
